Laboratory results published in patent US11919901B2 (Syndax Pharmaceuticals, Inc., priority 2021, dated 2024).

Biological target: Menin-MLL (Homo sapiens (Human), UniProt O00255)
Experiment: Determination of binding constants (Ki) to Menin-MLL (HTRF)
Conditions: HTRF, 0.25 nM H-FL-Menin, 3.2 nM FITC-MLL-4-43, 24 hr incubation; for Ki: read-out: Menin-MLL Ki HTRF Assay: Ki

Menin-MLL, sequence (O00255 whole entry): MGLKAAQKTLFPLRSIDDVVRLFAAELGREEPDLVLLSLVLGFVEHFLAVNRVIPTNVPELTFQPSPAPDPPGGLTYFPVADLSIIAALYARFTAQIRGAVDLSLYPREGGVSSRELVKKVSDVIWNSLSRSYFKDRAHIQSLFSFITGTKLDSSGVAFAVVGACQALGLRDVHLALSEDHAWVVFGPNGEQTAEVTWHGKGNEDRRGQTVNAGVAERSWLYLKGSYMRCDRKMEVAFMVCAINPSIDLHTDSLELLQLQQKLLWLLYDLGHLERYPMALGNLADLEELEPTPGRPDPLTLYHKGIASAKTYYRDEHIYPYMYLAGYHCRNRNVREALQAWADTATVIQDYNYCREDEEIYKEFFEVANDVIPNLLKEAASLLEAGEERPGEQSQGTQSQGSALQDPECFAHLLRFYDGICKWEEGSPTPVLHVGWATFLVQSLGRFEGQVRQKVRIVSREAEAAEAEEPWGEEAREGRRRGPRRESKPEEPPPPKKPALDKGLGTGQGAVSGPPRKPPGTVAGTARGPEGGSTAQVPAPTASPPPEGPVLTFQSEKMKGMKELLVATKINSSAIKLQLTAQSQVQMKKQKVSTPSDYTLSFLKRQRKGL

Row | Compound | EC50 [nM] | Ki [nM]
1 | CCN(C(=O)c1cc(F)ccc1Oc1cncnc1N1CC2(CCN(C[C@@H]3CC[C@@H](NS(=O)(=O)N4CC(F)(F)C4)CO3)CC2)C1)C(C)C [Compound 70, 2-((4-(7-(((2S,5R)-5-((3,3-Difluoroazetidine)-1-sulfonamido)tetrahydro-2H-pyran-2-yl)methyl)-2,7-diazaspiro[3.5]nonan-2-yl)pyrimidin-5-yl)oxy)-N-ethyl-5-fluoro-N-isopropylbenzamide] | < 50 | < 1
2 | CCN(C(=O)c1cc(F)ccc1Oc1cncnc1N1CC2(CCN(C[C@@H]3CC[C@@H](NS(N)(=O)=O)CO3)CC2)C1)C(C)C [Compound 73, N-Ethyl-5-fluoro-N-isopropyl-2-((4-(7-(((2S,5R)-5-(sulfamoylamino)tetrahydro-2H-pyran-2-yl)methyl)-2,7-diazaspiro[3.5]nonan-2-yl)pyrimidin-5-yl)oxy)benzamide] | – | < 1
3 | CCN(C(=O)c1cc(F)ccc1Oc1cncnc1N1CC2(CCN(C[C@@H]3CC[C@@H](NS(=O)(=O)c4ccc(=O)n(C)c4)CO3)CC2)C1)C(C)C [Compound 74, N-Ethyl-5-fluoro-N-isopropyl-2-((4-(7-(((2S,5R)-5-((1-methyl-6-oxo-1,6-dihydropyridine)-3-sulfonamido)tetrahydro-2H-pyran-2-yl)methyl)-2,7-diazaspiro[3.5]nonan-2-yl)pyrimidin-5-yl)oxy)benzamide] | – | < 1
4 | CC(C)N(C(=O)c1cc(F)ccc1Oc1cncnc1N1CC2(CCN(C[C@@H]3CC[C@@H](NS(=O)(=O)N(C)C)CO3)CC2)C1)C(C)C [Compound 77, 2-((4-(7-(((2S,5R)-5-((N,N-Dimethylsulfamoyl)amino)tetrahydro-2H-pyran-2-yl)methyl)-2,7-diazaspiro[3.5]nonan-2-yl)pyrimidin-5-yl)oxy)-5-fluoro-N,N-diisopropylbenzamide] | < 50 | < 1
5 | CC(C)N(C(=O)c1cc(F)ccc1Oc1cncnc1N1CC2(CCN(C[C@@H]3CC[C@@H](NS(=O)(=O)C4CCOCC4)CO3)CC2)C1)C(C)C [Compound 79] | < 50 | < 1
6 | CC(C)N(C(=O)c1cc(F)ccc1Oc1cncnc1N1CC2(CCN(C[C@@H]3CC[C@@H](NS(=O)(=O)c4ccc(=O)n(C)c4)CO3)CC2)C1)C(C)C [Compound 92, 5-Fluoro-N,N-diisopropyl-2-((4-(7-(((2S,5R)-5-((1-methyl-6-oxo-1,6-dihydropyridine)-3-sulfonamido)tetrahydro-2H-pyran-2-yl)methyl)-2,7-diazaspiro[3.5]nonan-2-yl)pyrimidin-5-yl)oxy)benzamide] | – | < 1
7 | CC(C)N(CC(F)F)C(=O)c1cc(F)ccc1Oc1cncnc1N1CC2(CCN(C[C@@H]3CC[C@@H](NS(C)(=O)=O)CO3)CC2)C1 [Compound 96, N-(2,2-Difluoroethyl)-5-fluoro-N-isopropyl-2-((4-(7-(((2S,5R)-5-(methylsulfonamido)tetrahydro-2H-pyran-2-yl)methyl)-2,7-diazaspiro[3.5]nonan-2-yl)pyrimidin-5-yl)oxy)benzamide] | < 50 | < 1
8 | CC(C)N(CC(F)F)C(=O)c1cc(F)ccc1Oc1cncnc1N1CC2(CCN(C[C@@H]3CC[C@@H](NS(=O)(=O)C4CCOCC4)CO3)CC2)C1 [Compound 98, N-(2,2-Difluoroethyl)-5-fluoro-N-isopropyl-2-((4-(7-(((2S,5R)-5-((tetrahydro-2H-pyran)-4-sulfonamido)tetrahydro-2H-pyran-2-yl)methyl)-2,7-diazaspiro[3.5]nonan-2-yl)pyrimidin-5-yl)oxy)benzamide] | < 50 | < 1
9 | CCn1cc(S(=O)(=O)N[C@@H]2CC[C@@H](CN3CCC4(CC3)CN(c3ncncc3Oc3ccc(F)cc3C(=O)N(CC(F)F)C(C)C)C4)OC2)cn1 [Compound 106, N-(2,2-Difluoroethyl)-2-((4-(7-(((2S,5R)-5-((1-ethyl-1H-pyrazole)-4-sulfonamido)tetrahydro-2H-pyran-2-yl)methyl)-2,7-diazaspiro[3.5]nonan-2-yl)pyrimidin-5-yl)oxy)-5-fluoro-N-isopropylbenzamide] | – | < 1
10 | CC(C)N(CC(F)(F)F)C(=O)c1cc(F)ccc1Oc1cncnc1N1CC2(CCN(C[C@@H]3CC[C@@H](NS(=O)(=O)N4CCOCC4)CO3)CC2)C1 [Compound 108, 5-Fluoro-N-isopropyl-2-((4-(7-(((2S,5R)-5-(morpholine-4-sulfonamido)tetrahydro-2H-pyran-2-yl)methyl)-2,7-diazaspiro[3.5]nonan-2-yl)pyrimidin-5-yl)oxy)-N-(2,2,2-trifluoroethyl)benzamide] | < 50 | < 1
11 | CC(C)N(CC(F)(F)F)C(=O)c1cc(F)ccc1Oc1cncnc1N1CC2(CCN(C[C@@H]3CC[C@@H](NS(=O)(=O)C(C)C)CO3)CC2)C1 [Compound 109, 5-Fluoro-N-isopropyl-2-((4-(7-(((2S,5R)-5-((1-methylethyl)sulfonamido)tetrahydro-2H-pyran-2-yl)methyl)-2,7-diazaspiro[3.5]nonan-2-yl)pyrimidin-5-yl)oxy)-N-(2,2,2-trifluoroethyl)benzamide] | < 50 | < 1
12 | CC(C)N(C(=O)c1cc(F)ccc1Oc1cncnc1N1CC2(CCN(C[C@@H]3CC[C@@H](NS(=O)(=O)C(C)C)CO3)CC2)C1)C1CC(F)(F)C1 [Compound 110, N-(3,3-Difluorocyclobutyl)-5-fluoro-N-isopropyl-2-((4-(7-(((2S,5R)-5-((1-methylethyl)sulfonamido)tetrahydro-2H-pyran-2-yl)methyl)-2,7-diazaspiro[3.5]nonan-2-yl)pyrimidin-5-yl)oxy)benzamide] | < 50 | < 1
13 | CC(C)N(C(=O)c1cc(F)ccc1Oc1cncnc1N1CC2(CCN(C[C@@H]3CC[C@@H](NS(C)(=O)=O)CO3)CC2)C1)C1CC(F)(F)C1 [Compound 112, N-(3,3-Difluorocyclobutyl)-5-fluoro-N-isopropyl-2-((4-(7-(((2S,5R)-5-(methylsulfonamido)tetrahydro-2H-pyran-2-yl)methyl)-2,7-diazaspiro[3.5]nonan-2-yl)pyrimidin-5-yl)oxy)benzamide] | < 50 | < 1
14 | CC(C)N(C(=O)c1cc(F)ccc1Oc1cncnc1N1CC2(CCN(C[C@@H]3CC[C@@H](NS(=O)(=O)C4COC4)CO3)CC2)C1)C1CC(F)(F)C1 [Compound 115, N-(3,3-Difluorocyclobutyl)-5-fluoro-N-isopropyl-2-((4-(7-(((2S,5R)-5-(oxetane-3-sulfonamido)tetrahydro-2H-pyran-2-yl)methyl)-2,7-diazaspiro[3.5]nonan-2-yl)pyrimidin-5-yl)oxy)benzamide] | < 50 | < 1
15 | CC(C)N(C(=O)c1cc(F)ccc1Oc1cncnc1N1CC2(CCN(C[C@@H]3CC[C@@H](NS(=O)(=O)N4CCOCC4)CO3)CC2)C1)C1CC(F)(F)C1 [Compound 116, N-(3,3-Difluorocyclobutyl)-5-fluoro-N-isopropyl-2-((4-(7-(((2S,5R)-5-(morpholine-4-sulfonamido)tetrahydro-2H-pyran-2-yl)methyl)-2,7-diazaspiro[3.5]nonan-2-yl)pyrimidin-5-yl)oxy)benzamide] | < 50 | < 1
16 | CC(C)N(C(=O)c1cc(F)ccc1Oc1cncnc1N1CC2(CCN(C[C@@H]3CC[C@@H](NS(N)(=O)=O)CO3)CC2)C1)C1CC(F)(F)C1 [Compound 117, N-(3,3-Difluorocyclobutyl)-5-fluoro-N-isopropyl-2-((4-(7-(((2S,5R)-5-(sulfamoylamino)tetrahydro-2H-pyran-2-yl)methyl)-2,7-diazaspiro[3.5]nonan-2-yl)pyrimidin-5-yl)oxy)benzamide] | < 50 | < 1
17 | C[C@@H]1COC[C@@H](C)N1C(=O)c1cc(F)ccc1Oc1cncnc1N1CC2(CCN(C[C@@H]3CC[C@@H](NS(=O)(=O)N4CCCC4)CO3)CC2)C1 [Compound 124, N-((3R,6S)-6-((2-(5-(2-((3R,5R)-3,5-Dimethylmorpholine-4-carbonyl)-4-fluorophenoxy)pyrimidin-4-yl)-2,7-diazaspiro[3.5]nonan-7-yl)methyl)tetrahydro-2H-pyran-3-yl)pyrrolidine-1-sulfonamide] | – | < 1
18 | C[C@@H]1COC[C@@H](C)N1C(=O)c1cc(F)ccc1Oc1cncnc1N1CC2(CCN(C[C@@H]3CC[C@@H](NS(=O)(=O)c4cnn(C)c4)CO3)CC2)C1 [Compound 126] | – | < 1
19 | C[C@@H]1COC[C@@H](C)N1C(=O)c1cc(F)ccc1Oc1cncnc1N1CC2(CCN(C[C@@H]3CC[C@@H](NS(=O)(=O)c4ccn(C)n4)CO3)CC2)C1 [Compound 127] | – | < 1
20 | CCN(C)S(=O)(=O)N[C@@H]1CC[C@@H](CN2CCC3(CC2)CN(c2ncncc2Oc2ccc(F)cc2C(=O)N2[C@H](C)COC[C@H]2C)C3)OC1 [Compound 128, {[(3R,6S)-6-{[2-(5-{2-[(3R,5R)-3,5-Dimethylmorpholine-4-carbonyl]-4-fluorophenoxy}pyrimidin-4-yl)-2,7-diazaspiro[3.5]nonan-7-yl]methyl}oxan-3-yl]sulfamoyl}(ethyl)methylamine] | – | < 1
21 | C[C@@H]1COC[C@@H](C)N1C(=O)c1cc(F)ccc1Oc1cncnc1N1CC2(CCN(C[C@@H]3CC[C@@H](NS(=O)(=O)N(C)C4CC4)CO3)CC2)C1 [Compound 129, N-{[(3R,6S)-6-{[2-(5-{2-[(3R,5R)-3,5-Dimethylmorpholine-4-carbonyl]-4-fluorophenoxy}pyrimidin-4-yl)-2,7-diazaspiro[3.5]nonan-7-yl]methyl}oxan-3-yl]sulfamoyl}-N-methylcyclopropanamine] | – | < 1
22 | Cc1nc(S(=O)(=O)N[C@@H]2CC[C@@H](CN3CCC4(CC3)CN(c3ncncc3Oc3ccc(F)cc3C(=O)N3[C@H](C)COC[C@@H]3C)C4)OC2)cs1 [Compound 131, N-((3R,6S)-6-((2-(5-(2-((3S,5R)-3,5-Dimethylmorpholine-4-carbonyl)-4-fluorophenoxy)pyrimidin-4-yl)-2,7-diazaspiro[3.5]nonan-7-yl)methyl)tetrahydro-2H-pyran-3-yl)-2-methylthiazole-4-sulfonamide] | – | < 1
